# Experimental data taken from ChEMBL document CHEMBL4814033, “Unique para-aminobenzenesulfonyl oxadiazoles as novel structural potential membrane active antibacterial agents towards drug-resistant methicillin resistant Staphylococcus aureus” (2021).
# Calls of active or inactive are those of the source. The calls are words filed in the database; no cut-off is given here.
# How the values were obtained:
# [1] = tested on: Staphylococcus aureus; assay: Antibacterial activity against methicillin-resistant Staphylococcus aureus by broth microdilution assay; type: functional
# [2] = tested on: Enterococcus faecalis; assay: Antibacterial activity against Enterococcus faecalis by broth microdilution assay; type: functional
# [3] = tested on: Staphylococcus aureus; assay: Antibacterial activity against Staphylococcus aureus by broth microdilution assay; type: functional
# [4] = tested on: Staphylococcus aureus; assay: Antibacterial activity against Staphylococcus aureus ATCC 25923 by broth microdilution assay; type: functional
# [5] = tested on: Staphylococcus aureus; assay: Antibacterial activity against Staphylococcus aureus ATCC 29213 by broth microdilution assay; type: functional
# [6] = tested on: Klebsiella pneumoniae; assay: Antibacterial activity against Klebsiella pneumonia by broth microdilution assay; type: functional
# [7] = tested on: Escherichia coli; assay: Antibacterial activity against Escherichia coli by broth microdilution assay; type: functional
# [8] = tested on: Escherichia coli; assay: Antibacterial activity against Escherichia coli ATCC 25922 by broth microdilution assay; type: functional
# [9] = tested on: Pseudomonas aeruginosa; assay: Antibacterial activity against Pseudomonas aeruginosa by broth microdilution assay; type: functional
# [10] = tested on: Pseudomonas aeruginosa; assay: Antibacterial activity against Pseudomonas aeruginosa ATCC 27853 by broth microdilution assay; type: functional
# [11] = tested on: Acinetobacter baumannii; assay: Antibacterial activity against Acinetobacter baumannii by broth microdilution assay; type: functional
# [12] = tested on: Staphylococcus aureus; assay: Potency index, ratio of MIC of norfloxacin to MIC of compound for antibacterial activity against methicillin-resistant Staphylococcus aureus by broth microdilution assay; type: functional
# [13] = tested on: Staphylococcus aureus; assay: Antibacterial activity against methicillin-resistant Staphylococcus aureus assessed as reduction in bacterial growth measured after 16 passages; type: functional, organism-based
# [14] = tested on: Cell membrane; assay: Disruption of inner cell membrane in methicillin-resistant Staphylococcus aureus at 4 times of MIC measured within 14 mins by PI uptake assay; type: subcellular
# [15] = tested on: Calf thymus DNA; assay: Binding affinity to calf thymus DNA assessed as red shift in absorption spectra upto 26.7 uM by UV-vis absorption spectroscopy; type: tissue-based; details: Bos taurus, dose microM <=26.7
# [16] = tested on: Calf thymus DNA; assay: Binding affinity to calf thymus DNA assessed as reduction in fluorescence intensity of DNA-AO complex by AO dye based fluorescence analysis; details: Bos taurus
# [17] = tested on: Calf thymus DNA; assay: Binding affinity to calf thymus DNA assessed as enhancement in maximum absorption of DNA upto 26.7 uM by UV-vis absorption spectroscopy; type: tissue-based; details: Bos taurus, dose microM <=26.7
# [18] = tested on: Staphylococcus aureus; assay: Antibacterial activity against methicillin-resistant Staphylococcus aureus assessed as metabolic inactivation by Alamar blue assay; type: functional, organism-based
smiles,measurement,setting,value
CC(=O)Nc1ccc(S(=O)(=O)Cc2nnc(SCc3ccc(F)cc3F)o2)cc1,MIC,[1],16 µg/mL
same,MIC,[2],128 µg/mL
same,MIC,[3],64 µg/mL
same,MIC,[4],64 µg/mL
same,MIC,[5],32 µg/mL
same,MIC,[6],128 µg/mL
same,MIC,[7],8 µg/mL
same,MIC,[8],128 µg/mL
same,MIC,[9],64 µg/mL
same,MIC,[10],64 µg/mL
same,MIC,[11],64 µg/mL
CCOC(=O)CSc1nnc(CS(=O)(=O)c2ccc(NC(C)=O)cc2)o1,MIC,[1],16 µg/mL
same,MIC,[2],128 µg/mL
same,MIC,[3],128 µg/mL
same,MIC,[4],64 µg/mL
same,MIC,[5],64 µg/mL
same,MIC,[6],64 µg/mL
same,MIC,[7],32 µg/mL
same,MIC,[8],128 µg/mL
same,MIC,[9],64 µg/mL
same,MIC,[10],128 µg/mL
same,MIC,[11],32 µg/mL
CCCCSc1nnc(CS(=O)(=O)c2ccc(NC(C)=O)cc2)o1,MIC,[1],256 µg/mL
same,MIC,[2],256 µg/mL
same,MIC,[3],128 µg/mL
same,MIC,[4],256 µg/mL
same,MIC,[5],256 µg/mL
same,MIC,[6],256 µg/mL
same,MIC,[7],128 µg/mL
same,MIC,[8],256 µg/mL
same,MIC,[9],256 µg/mL
same,MIC,[10],256 µg/mL
same,MIC,[11],256 µg/mL
CC(=O)Nc1ccc(S(=O)(=O)Cc2nnc(SCC(=O)O)o2)cc1,MIC,[1],32 µg/mL
same,MIC,[2],64 µg/mL
same,MIC,[3],128 µg/mL
same,MIC,[4],64 µg/mL
same,MIC,[5],64 µg/mL
same,MIC,[6],64 µg/mL
same,MIC,[7],32 µg/mL
same,MIC,[8],128 µg/mL
same,MIC,[9],128 µg/mL
same,MIC,[10],128 µg/mL
same,MIC,[11],32 µg/mL
CC(=O)Nc1ccc(S(=O)(=O)Cc2nnc(SCC#N)o2)cc1,MIC,[1],256 µg/mL
same,MIC,[2],256 µg/mL
same,MIC,[3],128 µg/mL
same,MIC,[4],256 µg/mL
same,MIC,[5],256 µg/mL
same,MIC,[6],256 µg/mL
same,MIC,[7],256 µg/mL
same,MIC,[8],256 µg/mL
same,MIC,[9],256 µg/mL
same,MIC,[10],256 µg/mL
same,MIC,[11],128 µg/mL
CC(=O)Nc1ccc(S(=O)(=O)Cc2nnc(SCCF)o2)cc1,MIC,[1],2 µg/mL
same,MIC,[2],64 µg/mL
same,MIC,[3],64 µg/mL
same,MIC,[4],128 µg/mL
same,MIC,[5],32 µg/mL
same,MIC,[6],32 µg/mL
same,MIC,[7],32 µg/mL
same,MIC,[8],64 µg/mL
same,MIC,[9],64 µg/mL
same,MIC,[10],128 µg/mL
same,MIC,[11],64 µg/mL
same,Ratio,[12],8
C#CCSc1nnc(CS(=O)(=O)c2ccc(NC(C)=O)cc2)o1,MIC,[1],8 µg/mL
same,MIC,[2],128 µg/mL
same,MIC,[3],64 µg/mL
same,MIC,[4],64 µg/mL
same,MIC,[5],32 µg/mL
same,MIC,[6],256 µg/mL
same,MIC,[7],128 µg/mL
same,MIC,[8],128 µg/mL
same,MIC,[9],64 µg/mL
same,MIC,[10],256 µg/mL
same,MIC,[11],128 µg/mL
CC(=O)Nc1ccc(S(=O)(=O)Cc2nnc(SCc3ccc(Cl)cc3Cl)o2)cc1,MIC,[1],2 µg/mL
same,MIC,[2],128 µg/mL
same,MIC,[3],64 µg/mL
same,MIC,[4],256 µg/mL
same,MIC,[5],32 µg/mL
same,MIC,[6],16 µg/mL
same,MIC,[7],16 µg/mL
same,MIC,[8],64 µg/mL
same,MIC,[9],64 µg/mL
same,MIC,[10],256 µg/mL
same,MIC,[11],32 µg/mL
CC(=O)Nc1ccc(S(=O)(=O)Cc2nnc(S)o2)cc1,MIC,[1],256 µg/mL
same,MIC,[2],128 µg/mL
same,MIC,[3],256 µg/mL
same,MIC,[4],256 µg/mL
same,MIC,[5],256 µg/mL
same,MIC,[6],256 µg/mL
same,MIC,[7],256 µg/mL
same,MIC,[8],256 µg/mL
same,MIC,[9],256 µg/mL
same,MIC,[10],256 µg/mL
same,MIC,[11],256 µg/mL
CC(=O)CSc1nnc(CS(=O)(=O)c2ccc(NC(C)=O)cc2)o1,MIC,[1],2 µg/mL
same,MIC,[2],64 µg/mL
same,MIC,[3],64 µg/mL
same,MIC,[4],128 µg/mL
same,MIC,[5],32 µg/mL
same,MIC,[6],16 µg/mL
same,MIC,[7],16 µg/mL
same,MIC,[8],64 µg/mL
same,MIC,[9],64 µg/mL
same,MIC,[10],128 µg/mL
same,MIC,[11],64 µg/mL
CC(=O)Nc1ccc(S(=O)(=O)Cc2nnc(SCCO)o2)cc1,MIC,[1],32 µg/mL
same,MIC,[2],32 µg/mL
same,MIC,[3],64 µg/mL
same,MIC,[4],32 µg/mL
same,MIC,[5],32 µg/mL
same,MIC,[6],16 µg/mL
same,MIC,[7],32 µg/mL
same,MIC,[8],64 µg/mL
same,MIC,[9],32 µg/mL
same,MIC,[10],128 µg/mL
same,MIC,[11],64 µg/mL
CCN(CC)CCSc1nnc(CS(=O)(=O)c2ccc(NC(C)=O)cc2)o1,MIC,[1],32 µg/mL
same,MIC,[2],64 µg/mL
same,MIC,[3],128 µg/mL
same,MIC,[4],64 µg/mL
same,MIC,[5],64 µg/mL
same,MIC,[6],128 µg/mL
same,MIC,[7],64 µg/mL
same,MIC,[8],128 µg/mL
same,MIC,[9],128 µg/mL
same,MIC,[10],64 µg/mL
same,MIC,[11],32 µg/mL
CCn1cc(C(=O)O)c(=O)c2cc(F)c(N3CCNCC3)cc21 [NORFLOXACIN],MIC,[1],16 µg/mL
same,MIC,[2],8 µg/mL
same,MIC,[3],4 µg/mL
same,MIC,[4],8 µg/mL
same,MIC,[5],8 µg/mL
same,MIC,[6],16 µg/mL
same,MIC,[7],8 µg/mL
same,MIC,[8],8 µg/mL
same,MIC,[9],4 µg/mL
same,MIC,[10],8 µg/mL
same,MIC,[11],8 µg/mL
same,Activity,[13],inactive
CCCCCCSc1nnc(CS(=O)(=O)c2ccc(NC(C)=O)cc2)o1,MIC,[1],1 µg/mL
same,MIC,[2],128 µg/mL
same,MIC,[3],256 µg/mL
same,MIC,[4],256 µg/mL
same,MIC,[5],256 µg/mL
same,MIC,[6],8 µg/mL
same,MIC,[7],256 µg/mL
same,MIC,[8],128 µg/mL
same,MIC,[9],256 µg/mL
same,MIC,[10],256 µg/mL
same,MIC,[11],32 µg/mL
same,Ratio,[12],16
same,Activity,[13],Active
same,Activity,[14],Active
same,Activity,[15],Active
same,Activity,[16],Active
same,Activity,[17],Active
same,Activity,[18],Active
C=CCSc1nnc(CS(=O)(=O)c2ccc(NC(C)=O)cc2)o1,MIC,[1],256 µg/mL
same,MIC,[2],64 µg/mL
same,MIC,[3],256 µg/mL
same,MIC,[4],256 µg/mL
same,MIC,[5],256 µg/mL
same,MIC,[6],256 µg/mL
same,MIC,[7],256 µg/mL
same,MIC,[8],256 µg/mL
same,MIC,[9],256 µg/mL
same,MIC,[10],256 µg/mL
same,MIC,[11],256 µg/mL
CC(=O)Nc1ccc(S(=O)(=O)Cc2nnc(SCC3CC3)o2)cc1,MIC,[1],8 µg/mL
same,MIC,[2],64 µg/mL
same,MIC,[3],128 µg/mL
same,MIC,[4],64 µg/mL
same,MIC,[5],64 µg/mL
same,MIC,[6],128 µg/mL
same,MIC,[7],8 µg/mL
same,MIC,[8],128 µg/mL
same,MIC,[9],64 µg/mL
same,MIC,[10],64 µg/mL
same,MIC,[11],64 µg/mL
CCCCCCCCCCCCSc1nnc(CS(=O)(=O)c2ccc(NC(C)=O)cc2)o1,MIC,[1],128 µg/mL
same,MIC,[2],128 µg/mL
same,MIC,[3],256 µg/mL
same,MIC,[4],256 µg/mL
same,MIC,[5],256 µg/mL
same,MIC,[6],64 µg/mL
same,MIC,[7],256 µg/mL
same,MIC,[8],256 µg/mL
same,MIC,[9],256 µg/mL
same,MIC,[10],256 µg/mL
same,MIC,[11],256 µg/mL
